Experimental data: the NIST ThermoML archive (doi:10.1021/acs.jced.8b00176)
± gives the expanded uncertainty stated by the source.

Key:
[1] = 100 kPa, Liquid; for viscosity: Falling or rolling sphere viscometry; for speed of sound: Frequency=3 MHz, Single path-length method; for mass density: Vibrating tube method
[2] = xn = mol fraction of the nth substance listed; details: 100 kPa, Liquid; for viscosity: Falling or rolling sphere viscometry; for speed of sound: Frequency=3 MHz, Single path-length method; for mass density: Vibrating tube method

Structure (SMILES): CN(C)C=O [dimethylformamide]
- viscosity ([1]; 298.15 K): 0.81 ± 0.2 mPa·s
- speed of sound ([1]; 298.15 K): 1457.1 ± 2.2 m/s
- mass density ([1]; 298.15 K): 943.934 ± 2 kg/m3
- viscosity ([1]; 303.15 K): 0.77 ± 0.2 mPa·s
- speed of sound ([1]; 303.15 K): 1437.8 ± 2.2 m/s
- mass density ([1]; 303.15 K): 939.162 ± 2 kg/m3
- viscosity ([1]; 308.15 K): 0.72 ± 0.2 mPa·s
- speed of sound ([1]; 308.15 K): 1418.5 ± 2.2 m/s
- mass density ([1]; 308.15 K): 934.373 ± 2 kg/m3
- viscosity ([1]; 313.15 K): 0.69 ± 0.2 mPa·s
- speed of sound ([1]; 313.15 K): 1399.2 ± 2.2 m/s
- mass density ([1]; 313.15 K): 929.577 ± 2 kg/m3
- viscosity ([1]; 318.15 K): 0.65 ± 0.2 mPa·s
- speed of sound ([1]; 318.15 K): 1379.9 ± 2.2 m/s
- mass density ([1]; 318.15 K): 924.765 ± 2 kg/m3
- viscosity ([1]; 323.15 K): 0.62 ± 0.2 mPa·s
- speed of sound ([1]; 323.15 K): 1360.7 ± 2.2 m/s
- mass density ([1]; 323.15 K): 919.95 ± 2 kg/m3

Structure (SMILES): CN(C)C=O [dimethylformamide] + CC#N
- viscosity ([2]; 298.15 K, x1 = 1): 0.81 ± 0.2 mPa·s
- speed of sound ([2]; 298.15 K, x1 = 1): 1457.1 ± 2.2 m/s
- mass density ([2]; 298.15 K, x1 = 1): 943.934 ± 2 kg/m3
- viscosity ([2]; 303.15 K, x1 = 1): 0.77 ± 0.2 mPa·s
- speed of sound ([2]; 303.15 K, x1 = 1): 1437.8 ± 2.2 m/s
- mass density ([2]; 303.15 K, x1 = 1): 939.162 ± 2 kg/m3
- viscosity ([2]; 308.15 K, x1 = 1): 0.72 ± 0.2 mPa·s
- speed of sound ([2]; 308.15 K, x1 = 1): 1418.5 ± 2.2 m/s
- mass density ([2]; 308.15 K, x1 = 1): 934.373 ± 2 kg/m3
- viscosity ([2]; 313.15 K, x1 = 1): 0.69 ± 0.2 mPa·s
- speed of sound ([2]; 313.15 K, x1 = 1): 1399.2 ± 2.2 m/s
- mass density ([2]; 313.15 K, x1 = 1): 929.577 ± 2 kg/m3
- viscosity ([2]; 318.15 K, x1 = 1): 0.65 ± 0.2 mPa·s
- speed of sound ([2]; 318.15 K, x1 = 1): 1379.9 ± 2.2 m/s
- mass density ([2]; 318.15 K, x1 = 1): 924.765 ± 2 kg/m3
- viscosity ([2]; 323.15 K, x1 = 1): 0.62 ± 0.2 mPa·s
- speed of sound ([2]; 323.15 K, x1 = 1): 1360.7 ± 2.2 m/s
- mass density ([2]; 323.15 K, x1 = 1): 919.95 ± 2 kg/m3

Structure (SMILES): CC#N [acetonitrile]
- viscosity ([1]; 298.15 K): 0.34 mPa·s
- speed of sound ([1]; 298.15 K): 1278.5 ± 2.2 m/s
- mass density ([1]; 298.15 K): 776.714 ± 2 kg/m3
- viscosity ([1]; 303.15 K): 0.32 mPa·s
- speed of sound ([1]; 303.15 K): 1258.4 ± 2.2 m/s
- mass density ([1]; 303.15 K): 771.289 ± 2 kg/m3
- viscosity ([1]; 308.15 K): 0.31 mPa·s
- speed of sound ([1]; 308.15 K): 1238.2 ± 2.2 m/s
- mass density ([1]; 308.15 K): 765.833 ± 2 kg/m3
- viscosity ([1]; 313.15 K): 0.3 mPa·s
- speed of sound ([1]; 313.15 K): 1218 ± 2.2 m/s
- mass density ([1]; 313.15 K): 760.339 ± 2 kg/m3
- viscosity ([1]; 318.15 K): 0.29 mPa·s
- speed of sound ([1]; 318.15 K): 1197.9 ± 2.2 m/s
- mass density ([1]; 318.15 K): 754.815 ± 2 kg/m3
- viscosity ([1]; 323.15 K): 0.28 mPa·s
- speed of sound ([1]; 323.15 K): 1177.8 ± 2.2 m/s
- mass density ([1]; 323.15 K): 749.253 ± 2 kg/m3

Structure (SMILES): CN(C)C=O [dimethylformamide] + CCCCn1cc[n+](C)c1.O=S(=O)([O-])C(F)(F)F
- viscosity ([2]; 298.15 K, x2 = 0): 0.81 ± 0.2 mPa·s
- speed of sound ([2]; 298.15 K, x2 = 0): 1457.1 ± 2.2 m/s
- mass density ([2]; 298.15 K, x2 = 0): 943.934 ± 2 kg/m3
- viscosity ([2]; 303.15 K, x2 = 0): 0.77 ± 0.2 mPa·s
- speed of sound ([2]; 303.15 K, x2 = 0): 1437.8 ± 2.2 m/s
- mass density ([2]; 303.15 K, x2 = 0): 939.162 ± 2 kg/m3
- viscosity ([2]; 308.15 K, x2 = 0): 0.72 ± 0.2 mPa·s
- speed of sound ([2]; 308.15 K, x2 = 0): 1418.5 ± 2.2 m/s
- mass density ([2]; 308.15 K, x2 = 0): 934.373 ± 2 kg/m3
- viscosity ([2]; 313.15 K, x2 = 0): 0.69 ± 0.2 mPa·s
- speed of sound ([2]; 313.15 K, x2 = 0): 1399.2 ± 2.2 m/s
- mass density ([2]; 313.15 K, x2 = 0): 929.577 ± 2 kg/m3
- viscosity ([2]; 318.15 K, x2 = 0): 0.65 ± 0.2 mPa·s
- speed of sound ([2]; 318.15 K, x2 = 0): 1379.9 ± 2.2 m/s
- mass density ([2]; 318.15 K, x2 = 0): 924.765 ± 2 kg/m3
- viscosity ([2]; 323.15 K, x2 = 0): 0.62 ± 0.2 mPa·s
- speed of sound ([2]; 323.15 K, x2 = 0): 1360.7 ± 2.2 m/s
- mass density ([2]; 323.15 K, x2 = 0): 919.95 ± 2 kg/m3

Structure (SMILES): CC#N [acetonitrile] + CCCCn1cc[n+](C)c1.O=S(=O)([O-])C(F)(F)F
- viscosity ([2]; 298.15 K, x2 = 0): 0.34 mPa·s
- speed of sound ([2]; 298.15 K, x2 = 0): 1278.5 ± 2.2 m/s
- mass density ([2]; 298.15 K, x2 = 0): 776.714 ± 2 kg/m3
- viscosity ([2]; 303.15 K, x2 = 0): 0.32 mPa·s
- speed of sound ([2]; 303.15 K, x2 = 0): 1258.4 ± 2.2 m/s
- mass density ([2]; 303.15 K, x2 = 0): 771.289 ± 2 kg/m3
- viscosity ([2]; 308.15 K, x2 = 0): 0.31 mPa·s
- speed of sound ([2]; 308.15 K, x2 = 0): 1238.2 ± 2.2 m/s
- mass density ([2]; 308.15 K, x2 = 0): 765.833 ± 2 kg/m3
- viscosity ([2]; 313.15 K, x2 = 0): 0.3 mPa·s
- speed of sound ([2]; 313.15 K, x2 = 0): 1218 ± 2.2 m/s
- mass density ([2]; 313.15 K, x2 = 0): 760.339 ± 2 kg/m3
- viscosity ([2]; 318.15 K, x2 = 0): 0.29 mPa·s
- speed of sound ([2]; 318.15 K, x2 = 0): 1197.9 ± 2.2 m/s
- mass density ([2]; 318.15 K, x2 = 0): 754.815 ± 2 kg/m3
- viscosity ([2]; 323.15 K, x2 = 0): 0.28 mPa·s
- speed of sound ([2]; 323.15 K, x2 = 0): 1177.8 ± 2.2 m/s
- mass density ([2]; 323.15 K, x2 = 0): 749.253 ± 2 kg/m3

Structure (SMILES): CCCCn1cc[n+](C)c1.O=S(=O)([O-])C(F)(F)F [1-butyl-3-methylimidazolium trifluoromethanesulfonate]
- viscosity ([1]; 298.15 K): 82.38 ± 1.7 mPa·s
- speed of sound ([1]; 298.15 K): 1393.2 ± 2.8 m/s
- mass density ([1]; 298.15 K): 1297.46 ± 2.4 kg/m3
- viscosity ([1]; 303.15 K): 66.69 ± 1.2 mPa·s
- speed of sound ([1]; 303.15 K): 1382.8 ± 2.8 m/s
- mass density ([1]; 303.15 K): 1293.46 ± 2.4 kg/m3
- viscosity ([1]; 308.15 K): 52.86 ± 0.96 mPa·s
- speed of sound ([1]; 308.15 K): 1371.7 ± 2.8 m/s
- mass density ([1]; 308.15 K): 1289.47 ± 2.4 kg/m3
- viscosity ([1]; 313.15 K): 43.67 ± 0.96 mPa·s
- speed of sound ([1]; 313.15 K): 1360.7 ± 2.8 m/s
- mass density ([1]; 313.15 K): 1285.47 ± 2.4 kg/m3
- viscosity ([1]; 318.15 K): 36.29 ± 0.92 mPa·s
- speed of sound ([1]; 318.15 K): 1349.9 ± 2.8 m/s
- mass density ([1]; 318.15 K): 1281.47 ± 2.4 kg/m3
- viscosity ([1]; 323.15 K): 30.57 ± 0.88 mPa·s
- speed of sound ([1]; 323.15 K): 1338.8 ± 2.8 m/s
- mass density ([1]; 323.15 K): 1277.48 ± 2.4 kg/m3
